From ChEMBL document CHEMBL1141204, “Carbonic anhydrase activators: X-ray crystal structure of the adduct of human isozyme II with L-histidine as a platform for the design of stronger activators” (Bioorg Med Chem Lett, 2005) come the findings set out here.

The assay concerns the target Carbonic anhydrase 4 (Homo sapiens) (UniProt P22748). The assay can be described thus: Activation constant against recombinant human CA IV isozyme by the esterase method. The format is functional.

Carbonic anhydrase 4 (Homo sapiens), sequence (P22748 whole entry): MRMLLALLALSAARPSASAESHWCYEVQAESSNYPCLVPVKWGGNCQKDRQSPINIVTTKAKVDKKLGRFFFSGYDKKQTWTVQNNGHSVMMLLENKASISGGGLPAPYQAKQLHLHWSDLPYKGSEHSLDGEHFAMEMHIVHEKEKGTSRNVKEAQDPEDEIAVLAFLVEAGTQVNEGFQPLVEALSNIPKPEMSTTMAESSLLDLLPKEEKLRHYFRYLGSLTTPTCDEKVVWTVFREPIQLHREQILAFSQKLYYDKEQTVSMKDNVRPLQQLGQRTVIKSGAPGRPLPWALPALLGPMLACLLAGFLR

As for `NCCC(=O)N[C@@H](Cc1c[nH]cn1)C(=O)O`, the KA came to 15 µM.

Take `NCCc1c[nH]cn1`: the KA stood at 37 µM.

For `COC(=O)[C@@H](N)Cc1c[nH]cn1`, the KA came out at 23 µM.

Turning to `N[C@@H](Cc1ccccc1)C(=O)O`, the KA was 4.6 µM.

In the case of `N[C@@H](Cc1c[nH]cn1)C(=O)O`, the KA was 33 µM.
